Results from US4226775A, “Substituted thio-substituted benzyl-propionyl-L-prolines” (American Cyanamid Company, priority 1979, dated 1980).

target: T1, angiotensin converting enzyme (ACE) (Oryctolagus cuniculus, UniProt P12822); assay: Spectrophotometric assay for angiotensin converting enzyme inhibitors; type: biochemical; details: crude ACE extract from rabbit lung; substrate benzoyl-glycyl-histidyl-leucine; 30 minutes at 37° C.; absorbance at 228 nm
T1 construct: The ACE was extracted from rabbit lung acetane powder (Pel-Freez, Biol. Inc.); tissue Pel-Freez, Biol. Inc; host or cells: rabbit lung acetone powder, crude extract (40,000 g supernatant)
T1 sequence (P12822 34-1310): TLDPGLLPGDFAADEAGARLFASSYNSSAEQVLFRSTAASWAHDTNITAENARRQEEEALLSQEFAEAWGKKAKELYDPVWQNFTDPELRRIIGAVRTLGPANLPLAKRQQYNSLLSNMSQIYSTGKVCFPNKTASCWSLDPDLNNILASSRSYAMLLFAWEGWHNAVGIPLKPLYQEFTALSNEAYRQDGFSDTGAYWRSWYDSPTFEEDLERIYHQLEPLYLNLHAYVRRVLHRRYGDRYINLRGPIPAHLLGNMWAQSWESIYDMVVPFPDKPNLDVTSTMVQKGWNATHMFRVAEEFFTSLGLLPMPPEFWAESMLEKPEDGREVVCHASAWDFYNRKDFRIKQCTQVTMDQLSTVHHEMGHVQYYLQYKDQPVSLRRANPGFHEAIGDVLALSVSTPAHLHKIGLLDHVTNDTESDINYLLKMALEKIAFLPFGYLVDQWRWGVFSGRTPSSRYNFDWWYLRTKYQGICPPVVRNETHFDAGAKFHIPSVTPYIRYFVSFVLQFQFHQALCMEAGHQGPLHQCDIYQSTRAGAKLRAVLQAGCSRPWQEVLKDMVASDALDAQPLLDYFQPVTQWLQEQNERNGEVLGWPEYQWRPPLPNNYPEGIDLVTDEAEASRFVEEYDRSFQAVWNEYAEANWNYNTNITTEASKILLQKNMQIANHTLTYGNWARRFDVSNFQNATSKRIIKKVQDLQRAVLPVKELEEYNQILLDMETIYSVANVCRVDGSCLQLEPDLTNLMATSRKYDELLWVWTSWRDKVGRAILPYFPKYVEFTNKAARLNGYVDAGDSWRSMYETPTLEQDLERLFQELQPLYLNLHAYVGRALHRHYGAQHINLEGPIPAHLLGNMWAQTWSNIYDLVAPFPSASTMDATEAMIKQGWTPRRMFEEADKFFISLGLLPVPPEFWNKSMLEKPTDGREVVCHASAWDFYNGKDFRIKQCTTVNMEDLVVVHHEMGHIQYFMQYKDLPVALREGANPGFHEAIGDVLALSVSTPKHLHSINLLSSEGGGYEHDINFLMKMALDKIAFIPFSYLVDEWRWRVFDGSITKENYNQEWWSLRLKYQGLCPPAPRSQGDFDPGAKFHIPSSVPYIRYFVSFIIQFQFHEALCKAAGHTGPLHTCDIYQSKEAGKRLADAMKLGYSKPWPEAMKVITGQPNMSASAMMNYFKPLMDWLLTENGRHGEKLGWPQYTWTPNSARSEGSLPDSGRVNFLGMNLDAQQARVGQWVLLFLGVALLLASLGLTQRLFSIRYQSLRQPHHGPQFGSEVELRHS
Protocol: The activity of the novel compounds of this invention as hypotensive agents was established in two systems which measure their ability as angiotensin converting enzyme inhibitors; namely, a spectrophotometric assay of the compounds in vitro and by the measurement of the blood pressure lowering effect of the compounds in the aorta-coarcted renal hypertensive rats.
The in vitro activity for inhibition of the angiotensin converting enzyme (ACE) was measured by the method of Cushman, D. W. and Cheung, H. S., Biochem. Pharmacol. 20, 1637-1648 (1971), using benzoyl-glycyl-histidyl-leucine as the substrate. The reaction mixture consisted of 50 ml. of potassium phosphate (500 mM., […]), […]. of sodium chloride (2500 mM.), 25 ml. of substrate (50 mM), 30 to 50 ml. of the crude extract of ACE, 10 ml. of test compound (2.5 mM) or vehicle and a suitable amount of distilled water to give a total volume of 250 ml. This reaction mixture was incubated for 30 minutes at 37° C. and the reaction was then terminated by the addition of 250 ml. of 1 N hydrochloric acid. The hippuric acid was then extracted with 1.5 ml. of ethyl acetate by vortex mixing for 15 seconds. After centrifugation, 1 ml. of the ethyl acetate layer was pipetted into a new tube and evaporated to dryness. The extracted hippuric acid was then dissolved in 1 ml. of water and the amount of this acid was then measured by its absorbance at 228 nm. The ACE was extracted from rabbit lung acetane powder (Pel-Freez, Biol. Inc.) by blending 5 g. of the powder in 50 ml. of phosphate buffer (50 mM, pH 8.3) and then centrifuging at 40,000 g for 30 minutes. The supernatant was then kept at 5° C. and used as the enzyme source. The activity of the ACE inhibitor was calculated as the percent inhibition of ACE activity compared to the control value of that particular assay. A full dose-response inhibitory curve is then performed to determine the IC50 value which may be defined as the molar concentration of a compound that will inhibit the ACE activity by 50%.

SMILES | IC50
CC(=O)SC(C(=O)c1ccccc1)C(C)C(=O)N1CCC[C@H]1C(=O)O (stereo partly drawn) [1-(3-Acetylthio-3-benzoyl-2-methylpropionyl)-L-proline] | 147 nM
O=C(c1ccccc1)c1cnc(SC(CC(=O)N2CCC[C@H]2C(=O)O)C(=O)c2ccc(Cl)cc2)nc1 (stereo partly drawn) [1-[3-(5-Benzoyl-2-pyrimidinylthio)-3-(4-chlorobenzoyl)propionyl]-L-proline] | 2780 nM
CC(=O)SC(CC(=O)N1CCC[C@H]1C(=O)O)C(=O)c1ccc(F)cc1 (stereo partly drawn) [1-[3-Acetylthio-3-(4-fluorobenzoyl)propionyl]-L-proline] | 473 nM
O=C(SC(CC(=O)N1CCC[C@H]1C(=O)O)C(=O)c1ccccc1)c1ccccc1 (stereo partly drawn) [1-(3-Benzoylthio-3-benzoylpropionyl)-L-proline] | 513 nM
CC(=O)SC(CC(=O)N1CCC[C@H]1C(=O)O)C(=O)c1ccc(Oc2ccc(Cl)cc2)cc1 (stereo partly drawn) [1-{3-Acetylthio-3-[4-(4-chlorophenoxy)benzoyl]-propionyl}-L-proline] | 358 nM
CC(=O)S[C@@H](C(=O)c1cccc(F)c1)[C@H](C)C(=O)N1CCC[C@H]1C(=O)O [[R-(R*,R*)]-1-[3-acetylthio-3-(3-fluorobenzoyl)-2-methylpropionyl]-L-proline] | 16000 nM
CC(=O)S[C@H](C(=O)c1ccc(Br)cc1)[C@@H](C)C(=O)N1CCC[C@H]1C(=O)O [[S-(R*,R*)]-1-[3-acetylthio-3-(4-bromobenzoyl)-2-methylpropionyl]-L-proline] | 133 nM
O=C(SC(CC(=O)N1CCC[C@H]1C(=O)O)C(=O)c1ccc(F)cc1)c1ccccc1 (stereo partly drawn) [1-[3-Benzoylthio-3-(4-fluorobenzoyl)propionyl]-L-proline] | 353 nM
COc1ccc(C(=O)C(CC(=O)N2CCC[C@H]2C(=O)O)SC(C)=O)cc1F (stereo partly drawn) [1-[3-Acetylthio-3-(3-fluoro-4-methoxybenzoyl)propionyl]-L-proline] | 600 nM
O=C(O)CSC(CC(=O)c1ccccc1)C(=O)N1CCC[C@H]1C(=O)O (stereo partly drawn) [1-[3-Benzoyl-2-(carboxymethylthio)propionyl]-L-proline] | 31600 nM
CC(=O)S[C@H](C(=O)c1cccc(F)c1)[C@H](C)C(=O)N1CCC[C@H]1C(=O)O [[R-(R*,S*)]-1-[3-acetylthio-3-(3-fluorobenzoyl)-2-methylpropionyl]-L-proline] | 280000 nM
CC(=O)SC(C(=O)c1ccc(Cl)cc1)C(C)C(=O)N1CCC[C@H]1C(=O)O (stereo partly drawn) [1-[3-Acetylthio-3-(4-chlorobenzoyl)-2-methylpropionyl]-L-proline] | 335 nM
CC(=O)SC(CC(=O)N1CCC[C@H]1C(=O)O)C(=O)c1ccc(C(C)(C)C)cc1 (stereo partly drawn) [1-[3-Acetylthio-3-(4-tert-butylbenzoyl)propionyl]-L-proline] | 183 nM
CC(=O)S[C@H](C(=O)c1cccc(F)c1)[C@@H](C)C(=O)N1CCC[C@H]1C(=O)O [[S-(R*,R*)]-1-[3-acetylthio-3-(3-fluorobenzoyl)-2-methylpropionyl]-L-proline] | 233 nM
CC(=O)SC(CC(=O)N1CCC[C@H]1C(=O)O)C(=O)c1ccc2c(c1)CCC2 (stereo partly drawn) [1-[3-acetylthio-3-(5-indanylcarbonyl)propionyl]-L-proline] | 218 nM
CC(=O)SC(CC(=O)N1CCC[C@H]1C(=O)O)C(=O)c1cccc(C(F)(F)F)c1 (stereo partly drawn) [1-[3-Acetylthio-3-(3-trifluoromethylbenzoyl)propionyl]-L-proline] | 1070 nM
CC(=O)SC(CC(=O)N1CCC[C@H]1C(=O)O)C(=O)c1ccccc1 (stereo partly drawn) [1-(3-Acetylthio-3-benzoylpropionyl)-L-proline] | 455 nM
CC(=O)SC(CC(=O)c1ccccc1)C(=O)N1CCC[C@H]1C(=O)O (stereo partly drawn) [1-(2-Acetylthio-3-benzoylpropionyl)-L-proline] | 4230 nM
O=C(c1ccc(Br)cc1)C(S)CC(=O)N1CCC[C@H]1C(=O)O (stereo partly drawn) [1-[3-(4-Bromobenzoyl)-3-thiopropionyl]-L-proline] | 352 nM
O=C(SC(CC(=O)N1CCC[C@H]1C(=O)O)C(=O)c1cccc(F)c1)c1ccccc1 (stereo partly drawn) [1-[3-Benzoylthio-3-(3-fluorobenzoyl)propionyl]-L-proline] | 1760 nM
O=C(c1cnc(SC(CC(=O)N2CCC[C@H]2C(=O)O)C(=O)c2ccc(Cl)cc2)nc1)c1cccs1 (stereo partly drawn) [1-[3-(4-Chlorobenzoyl)-3-[5-(2-thenoyl)-2-pyrimidinylthio]propionyl]-L-proline] | 5130 nM
CC(=O)SC(CC(=O)N1CCC[C@H]1C(=O)O)C(=O)c1ccc(Br)cc1 (stereo partly drawn) [1-[3-Acetylthio-3-(4-bromobenzoyl)propionyl]-L-proline] | 131 nM

Further compounds by falling IC50, results first:

IC50 | SMILES
130 nM | CC(=O)SC(CC(=O)N1CCC[C@H]1C(=O)O)C(=O)c1ccc2ccccc2c1 (stereo partly drawn) [1-[3-Acetylthio-3-(2-naphthoyl)propionyl]-L-proline]
115 nM | O=C(SC(CC(=O)N1CCC[C@H]1C(=O)O)C(=O)c1ccc(Br)cc1)c1ccccc1 (stereo partly drawn) [1-[3-(4-Bromobenzoyl)-3-benzoylthiopropionyl]-L-proline]
98.5 nM | CC(=O)S[C@@H](C(=O)c1ccc(Br)cc1)[C@@H](C)C(=O)N1CCC[C@H]1C(=O)O [[S-(R*,S*)]-1-[3-acetylthio-3-(4-bromobenzoyl)-2-methylpropionyl]-L-proline]
86 nM | CC(=O)SC(CC(=O)N1CCC[C@H]1C(=O)O)C(=O)c1ccc(-c2ccccc2)cc1 (stereo partly drawn) [1-[3-Acetylthio-3-(4-biphenylylcarbonyl)propionyl]-L-proline]
82.6 nM | CC(=O)SC(CC(=O)N1CCC[C@H]1C(=O)O)C(=O)c1ccc(Cl)cc1 (stereo partly drawn) [1-[3-Acetylthio-3-(4-chlorobenzoyl)propionyl]-L-proline]
78 nM | CC(=O)S[C@H](C(=O)c1ccccc1)[C@@H](C)C(=O)N1CCC[C@H]1C(=O)O [[S-(R*,R*)]-1-(3-acetylthio-3-benzoyl-2-methylpropionyl)-L-proline]
61.7 nM | CC(=O)SC(C(=O)c1cccc(F)c1)C(C)C(=O)N1CCC[C@H]1C(=O)O (stereo partly drawn) [1-[3-Acetylthio-3-(3-fluorobenzoyl)-2-methylpropionyl]-L-proline]
51.5 nM | CC(=O)S[C@@H](C(=O)c1ccccc1)[C@@H](C)C(=O)N1CCC[C@H]1C(=O)O [[S-(R*,S*)]-1-(3-Acetylthio-3-benzoyl-2-methylpropionyl)-L-proline]
37 nM | CC(=O)S[C@@H](C(=O)c1cccc(F)c1)[C@@H](C)C(=O)N1CCC[C@H]1C(=O)O [[S-(R*,S*)]-1-[3-acetylthio-3-(3-fluorobenzoyl)-2-methylpropionyl]-L-proline]
31.6 nM | CC(=O)SC(CC(=O)N1CCC[C@H]1C(=O)O)C(=O)c1cccc(F)c1 (stereo partly drawn) [1-[3-Acetylthio-3-(3-fluorobenzoyl)propionyl]-L-proline]
